{
  "source": "ChEMBL document CHEMBL1201862",
  "about": "“PubChem BioAssay data set” (2004)",
  "key": {"[1]": {"biological_target": "T1, Ubiquitin-conjugating enzyme E2 N (Homo sapiens, UniProt P61088)", "T1 sequence (P61088 whole entry)": "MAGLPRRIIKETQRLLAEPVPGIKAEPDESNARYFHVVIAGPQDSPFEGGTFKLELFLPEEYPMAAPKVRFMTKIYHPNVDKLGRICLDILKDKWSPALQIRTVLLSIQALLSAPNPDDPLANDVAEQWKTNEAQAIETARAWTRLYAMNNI", "type": "functional"}, "[2]": {"tested_on": "HT-1080", "test": "HT1080 cell viability loss – fluorescence readout (AID 620)", "type": "functional, cell-based", "conditions": "Homo sapiens"}, "[3]": {"test": "viability of HCT116 lacking mutant beta-catenin – cell-based, human colon tumor, dose response (AID 1045);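 also: HCT116 colon tumor cells with beta catenin knocked out; cells exposed to compound for 60 hours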", "type": "functional"}, "[4]": {"test": "viability of PTEN-deleted HCT116 cells – cell-based, HCT116 PTEN knockout, dose response (AID 1047);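 also: HCT116 colon tumor cells with PTEN knocked out; cells exposed to compound for 60 hours before readout; potency for loss of cell viability measured by luminescence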", "type": "functional"}, "[5]": {"test": "viability loss of HPDE-C7K cells – cell-based, fluorescence, HTS, primary screen (AID 431)", "type": "functional", "conditions": "Homo sapiens"}, "[6]": {"test": "NIH-3T3 fibroblast cytotoxicity, dose response, cytotoxicity control, cell-based, fluorescence, Alamar Blue, secondary assay (AID 2327);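 also: NIH-3T3 mouse fibroblasts cultured with fluconazole at 8 µg/mL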", "type": "functional"}, "[7]": {"biological_target": "Nonstructural protein 1 (Influenza A virus, UniProt Q194T2)", "type": "functional, Influenza A virus (A/California/07/2009(H1N1))"}, "[8]": {"biological_target": "Luciferin 4-monooxygenase (Photinus pyralis, UniProt P08659)", "sequence (P08659 whole entry)": "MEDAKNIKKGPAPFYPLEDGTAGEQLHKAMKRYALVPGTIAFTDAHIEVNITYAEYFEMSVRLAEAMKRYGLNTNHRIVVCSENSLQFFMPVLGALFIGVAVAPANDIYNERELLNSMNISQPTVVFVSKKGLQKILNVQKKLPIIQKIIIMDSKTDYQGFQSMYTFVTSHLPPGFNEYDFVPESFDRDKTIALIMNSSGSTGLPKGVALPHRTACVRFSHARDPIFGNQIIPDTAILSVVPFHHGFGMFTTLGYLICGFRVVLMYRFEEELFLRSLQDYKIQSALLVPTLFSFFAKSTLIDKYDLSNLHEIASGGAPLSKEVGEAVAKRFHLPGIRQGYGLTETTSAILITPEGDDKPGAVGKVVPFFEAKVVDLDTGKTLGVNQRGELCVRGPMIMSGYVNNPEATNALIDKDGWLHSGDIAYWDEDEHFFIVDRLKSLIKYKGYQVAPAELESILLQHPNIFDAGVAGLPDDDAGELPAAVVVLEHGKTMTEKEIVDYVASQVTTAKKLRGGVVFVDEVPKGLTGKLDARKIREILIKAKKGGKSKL", "test": "Counter Screen for Luciferase-based Assay Positives. [Related pubchem assays: 620, 618, 411 ]"}, "[9]": {"biological_target": "Beta-galactosidase (Escherichia coli, UniProt Q8VNN2)", "sequence (Q8VNN2 whole entry)": "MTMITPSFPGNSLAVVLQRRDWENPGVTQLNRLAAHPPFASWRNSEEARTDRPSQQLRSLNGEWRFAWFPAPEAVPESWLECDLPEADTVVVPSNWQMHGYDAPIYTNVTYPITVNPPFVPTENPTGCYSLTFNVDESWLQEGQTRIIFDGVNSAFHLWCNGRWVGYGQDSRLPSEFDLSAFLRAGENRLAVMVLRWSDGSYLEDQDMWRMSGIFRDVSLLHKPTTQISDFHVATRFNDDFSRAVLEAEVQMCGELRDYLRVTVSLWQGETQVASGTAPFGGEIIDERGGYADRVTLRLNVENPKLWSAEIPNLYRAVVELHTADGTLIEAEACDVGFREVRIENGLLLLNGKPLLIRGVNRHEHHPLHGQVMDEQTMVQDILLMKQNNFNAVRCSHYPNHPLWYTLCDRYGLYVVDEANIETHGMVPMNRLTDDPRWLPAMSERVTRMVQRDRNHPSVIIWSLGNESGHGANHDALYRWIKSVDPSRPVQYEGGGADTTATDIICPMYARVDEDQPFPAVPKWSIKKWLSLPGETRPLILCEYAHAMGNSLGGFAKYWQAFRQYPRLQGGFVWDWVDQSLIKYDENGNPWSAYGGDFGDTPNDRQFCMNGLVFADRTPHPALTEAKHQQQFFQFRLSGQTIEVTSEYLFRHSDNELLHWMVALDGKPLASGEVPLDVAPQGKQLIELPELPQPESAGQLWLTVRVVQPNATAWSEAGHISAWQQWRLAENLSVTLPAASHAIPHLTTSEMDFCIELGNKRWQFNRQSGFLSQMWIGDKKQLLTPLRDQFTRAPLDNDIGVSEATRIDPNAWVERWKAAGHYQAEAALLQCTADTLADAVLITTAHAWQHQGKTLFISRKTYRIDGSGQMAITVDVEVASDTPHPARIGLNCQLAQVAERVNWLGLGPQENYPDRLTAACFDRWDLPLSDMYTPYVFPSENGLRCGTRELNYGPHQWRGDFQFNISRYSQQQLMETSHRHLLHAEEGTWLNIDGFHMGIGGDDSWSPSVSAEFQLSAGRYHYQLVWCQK", "test": "detection-enzyme interference by beta-gal modulators – biochemical, E. coli enzyme, set 3, artefact control for CCR6 antagonist project, dose response (AID 504712)", "type": "functional"}, "[10]": {"test": "HPDE-C7 pancreatic duct cell viability loss – fluorescence, HTS (AID 430)", "type": "functional, cell-based", "conditions": "Homo sapiens"}, "[11]": {"test": "microbe, parasite or virus in culture", "type": "functional", "conditions": "Mycobacterium tuberculosis"}, "[12]": {"test": "fluconazole-exposed Candida albicans growth modulators – fluorescence, retest, confirmation (AID 2467)", "type": "functional, cell-based"}, "[13]": {"biological_target": "DNA dC->dU-editing enzyme APOBEC-3G (Homo sapiens, UniProt Q9HC16)", "test": "Dose Response confirmation of small molecule APOBEC3G DNA Deaminase Inhibitors via a fluorescence-based single-stranded DNA deaminase assay. [Related pubchem assays (depositor defined):AID493012, AID493028]", "type": "functional"}, "[14]": {"biological_target": "FAD-linked sulfhydryl oxidase ALR (Homo sapiens, UniProt P55789)", "sequence (P55789 whole entry)": "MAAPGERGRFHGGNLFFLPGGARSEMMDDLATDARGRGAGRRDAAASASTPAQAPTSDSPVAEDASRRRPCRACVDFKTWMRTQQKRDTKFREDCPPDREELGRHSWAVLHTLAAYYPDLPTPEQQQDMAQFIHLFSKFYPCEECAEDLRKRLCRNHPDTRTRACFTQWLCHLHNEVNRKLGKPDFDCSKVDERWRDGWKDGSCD", "test": "ALR-catalysed DTT oxidation blockers – biochemical, H2O2 detection, luminescence, cherry-pick, dose response (AID 493248)"}, "[15]": {"biological_target": "Large T antigen (Simian virus 40, UniProt P03070)", "type": "functional, Betapolyomavirus macacae"}, "[16]": {"biological_target": "DNA dC->dU-editing enzyme APOBEC-3A (Homo sapiens, UniProt P31941)", "test": "A3A deaminase inhibition for selectivity – biochemical, dose response (AID 504722)", "type": "functional"}, "[17]": {"biological_target": "T2, Short transient receptor potential channel 4 (Mus musculus, UniProt Q9QUQ5)", "T2 sequence (Q9QUQ5 whole entry)": "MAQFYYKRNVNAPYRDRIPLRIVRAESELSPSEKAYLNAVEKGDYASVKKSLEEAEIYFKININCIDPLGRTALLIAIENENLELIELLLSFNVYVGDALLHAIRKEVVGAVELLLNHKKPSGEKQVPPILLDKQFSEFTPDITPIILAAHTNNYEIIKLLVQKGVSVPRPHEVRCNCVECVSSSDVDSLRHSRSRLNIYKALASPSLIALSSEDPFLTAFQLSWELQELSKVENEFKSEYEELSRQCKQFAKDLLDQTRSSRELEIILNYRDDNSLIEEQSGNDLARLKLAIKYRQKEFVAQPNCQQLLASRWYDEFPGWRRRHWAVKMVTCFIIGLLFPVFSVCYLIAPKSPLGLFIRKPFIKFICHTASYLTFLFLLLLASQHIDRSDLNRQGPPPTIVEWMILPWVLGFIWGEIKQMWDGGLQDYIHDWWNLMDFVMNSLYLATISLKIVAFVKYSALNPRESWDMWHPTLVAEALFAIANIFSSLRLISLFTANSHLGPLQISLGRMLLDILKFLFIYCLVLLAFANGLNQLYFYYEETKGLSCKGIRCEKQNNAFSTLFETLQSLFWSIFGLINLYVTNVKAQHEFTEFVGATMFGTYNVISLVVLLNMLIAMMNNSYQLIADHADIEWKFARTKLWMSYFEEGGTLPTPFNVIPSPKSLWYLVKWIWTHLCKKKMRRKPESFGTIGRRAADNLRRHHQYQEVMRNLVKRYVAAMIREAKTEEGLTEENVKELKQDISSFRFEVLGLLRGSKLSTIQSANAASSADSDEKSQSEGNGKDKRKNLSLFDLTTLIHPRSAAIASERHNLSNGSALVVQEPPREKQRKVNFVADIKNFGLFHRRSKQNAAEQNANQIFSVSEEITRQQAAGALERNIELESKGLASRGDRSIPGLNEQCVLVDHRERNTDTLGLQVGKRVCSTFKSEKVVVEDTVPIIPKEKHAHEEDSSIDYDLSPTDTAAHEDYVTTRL", "test": "potentiation of DAMGO-evoked TRPC4 calcium signal – cell-based, HEK293 TRPC4/mu-opioid, Fluo-4 calcium, EC20 DAMGO, dose response (AID 434941)", "type": "functional"}, "[18]": {"biological_target": "Eukaryotic translation initiation factor 4E (Mus musculus, UniProt P63073)", "test": "blockers of eIF4G binding by eIF4E – biochemical, TR-FRET, dose response (AID 855);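 also: potency for disrupting eIF4E binding to eIF4GI seen as loss of FRET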", "type": "functional"}, "[19]": {"biological_target": "T3, Voltage-gated N-type calcium channel alpha-1B subunit/Amyloid beta A4 precursor protein-binding family A member 1 (Homo sapiens, UniProt Q00975+Q02410)", "T3 sequence (Q00975 whole entry)": "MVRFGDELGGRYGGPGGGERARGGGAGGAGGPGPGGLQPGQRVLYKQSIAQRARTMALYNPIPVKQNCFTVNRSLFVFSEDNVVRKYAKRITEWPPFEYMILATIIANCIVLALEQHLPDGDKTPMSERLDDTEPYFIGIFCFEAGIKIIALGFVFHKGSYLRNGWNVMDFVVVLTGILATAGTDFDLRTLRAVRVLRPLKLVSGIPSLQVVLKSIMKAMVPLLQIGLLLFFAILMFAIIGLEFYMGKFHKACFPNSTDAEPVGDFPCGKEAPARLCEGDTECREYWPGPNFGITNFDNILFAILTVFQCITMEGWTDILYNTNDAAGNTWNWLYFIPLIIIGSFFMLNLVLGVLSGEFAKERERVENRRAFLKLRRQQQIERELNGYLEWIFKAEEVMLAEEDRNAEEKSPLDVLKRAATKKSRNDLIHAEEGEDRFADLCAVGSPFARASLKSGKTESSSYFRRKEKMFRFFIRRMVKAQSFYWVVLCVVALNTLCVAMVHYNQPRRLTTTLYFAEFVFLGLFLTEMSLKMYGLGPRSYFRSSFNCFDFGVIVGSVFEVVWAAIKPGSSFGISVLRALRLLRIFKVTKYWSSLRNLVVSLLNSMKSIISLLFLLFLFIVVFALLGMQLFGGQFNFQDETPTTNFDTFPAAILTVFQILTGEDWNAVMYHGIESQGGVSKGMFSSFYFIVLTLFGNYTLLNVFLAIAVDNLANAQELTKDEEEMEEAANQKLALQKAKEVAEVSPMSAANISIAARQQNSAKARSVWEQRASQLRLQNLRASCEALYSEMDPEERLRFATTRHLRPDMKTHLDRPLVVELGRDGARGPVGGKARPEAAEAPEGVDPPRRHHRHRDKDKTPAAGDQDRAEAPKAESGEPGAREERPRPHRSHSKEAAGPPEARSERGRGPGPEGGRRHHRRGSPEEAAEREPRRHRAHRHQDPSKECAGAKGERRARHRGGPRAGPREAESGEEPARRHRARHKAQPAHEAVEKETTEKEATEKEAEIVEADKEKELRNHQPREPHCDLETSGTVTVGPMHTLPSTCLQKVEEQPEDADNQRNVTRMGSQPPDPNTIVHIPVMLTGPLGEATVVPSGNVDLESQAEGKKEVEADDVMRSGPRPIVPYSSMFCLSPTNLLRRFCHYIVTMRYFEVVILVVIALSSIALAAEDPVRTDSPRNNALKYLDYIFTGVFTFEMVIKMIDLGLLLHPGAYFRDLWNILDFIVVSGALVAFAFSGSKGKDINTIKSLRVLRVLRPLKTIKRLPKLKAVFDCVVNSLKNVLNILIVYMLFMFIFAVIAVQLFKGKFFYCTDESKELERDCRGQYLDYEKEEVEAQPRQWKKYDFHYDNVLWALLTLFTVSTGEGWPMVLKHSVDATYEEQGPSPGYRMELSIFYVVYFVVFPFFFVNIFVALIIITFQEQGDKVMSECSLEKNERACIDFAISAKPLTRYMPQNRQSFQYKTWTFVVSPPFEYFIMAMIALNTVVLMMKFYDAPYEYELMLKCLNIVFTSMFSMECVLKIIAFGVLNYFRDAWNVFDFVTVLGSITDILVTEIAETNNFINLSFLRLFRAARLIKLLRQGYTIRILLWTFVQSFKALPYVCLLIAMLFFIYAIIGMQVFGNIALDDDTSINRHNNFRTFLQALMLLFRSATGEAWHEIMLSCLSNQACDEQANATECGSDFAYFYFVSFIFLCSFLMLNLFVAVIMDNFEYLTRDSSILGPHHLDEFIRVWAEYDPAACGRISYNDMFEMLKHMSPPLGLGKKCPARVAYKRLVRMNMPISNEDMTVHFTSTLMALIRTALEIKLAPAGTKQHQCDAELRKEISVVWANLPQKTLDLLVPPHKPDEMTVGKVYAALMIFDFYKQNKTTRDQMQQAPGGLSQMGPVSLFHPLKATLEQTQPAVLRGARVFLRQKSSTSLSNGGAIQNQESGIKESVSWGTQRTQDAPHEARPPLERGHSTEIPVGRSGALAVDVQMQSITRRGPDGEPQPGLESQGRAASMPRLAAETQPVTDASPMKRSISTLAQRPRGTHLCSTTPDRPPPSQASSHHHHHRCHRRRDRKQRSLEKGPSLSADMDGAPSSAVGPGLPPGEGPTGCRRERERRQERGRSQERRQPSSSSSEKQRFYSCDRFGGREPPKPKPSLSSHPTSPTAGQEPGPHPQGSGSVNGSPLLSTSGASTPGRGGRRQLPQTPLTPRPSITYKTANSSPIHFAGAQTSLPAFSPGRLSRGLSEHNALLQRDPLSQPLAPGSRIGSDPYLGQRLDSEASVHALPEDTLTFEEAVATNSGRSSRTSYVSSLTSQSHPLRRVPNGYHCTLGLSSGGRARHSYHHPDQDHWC", "T3 sequence (Q02410 whole entry)": "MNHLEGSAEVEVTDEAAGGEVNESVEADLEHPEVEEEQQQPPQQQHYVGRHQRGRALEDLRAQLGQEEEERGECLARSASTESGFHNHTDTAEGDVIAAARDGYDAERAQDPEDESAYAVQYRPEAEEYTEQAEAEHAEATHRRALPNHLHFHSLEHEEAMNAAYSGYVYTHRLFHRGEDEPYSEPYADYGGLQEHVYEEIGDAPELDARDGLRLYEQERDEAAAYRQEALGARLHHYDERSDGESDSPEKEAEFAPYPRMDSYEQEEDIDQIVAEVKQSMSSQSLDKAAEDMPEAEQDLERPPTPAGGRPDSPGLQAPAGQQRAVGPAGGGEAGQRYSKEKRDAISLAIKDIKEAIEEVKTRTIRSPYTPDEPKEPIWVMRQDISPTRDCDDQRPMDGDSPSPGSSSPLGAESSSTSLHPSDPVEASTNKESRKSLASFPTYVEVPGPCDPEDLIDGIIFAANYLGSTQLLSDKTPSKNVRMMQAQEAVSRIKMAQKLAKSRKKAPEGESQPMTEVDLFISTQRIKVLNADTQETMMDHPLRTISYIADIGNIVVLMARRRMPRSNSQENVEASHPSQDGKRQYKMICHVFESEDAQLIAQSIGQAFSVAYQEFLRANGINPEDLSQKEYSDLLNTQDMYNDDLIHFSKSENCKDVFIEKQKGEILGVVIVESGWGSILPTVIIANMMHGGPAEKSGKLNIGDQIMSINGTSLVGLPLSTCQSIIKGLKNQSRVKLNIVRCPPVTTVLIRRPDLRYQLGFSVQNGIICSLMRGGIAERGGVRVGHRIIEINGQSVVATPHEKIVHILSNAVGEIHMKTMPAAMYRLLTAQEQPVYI", "type": "protein assay"}, "[20]": {"biological_target": "T4, Tyrosine-protein phosphatase non-receptor type 22 (Homo sapiens, UniProt Q9Y2R2)", "T4 sequence (Q9Y2R2 whole entry)": "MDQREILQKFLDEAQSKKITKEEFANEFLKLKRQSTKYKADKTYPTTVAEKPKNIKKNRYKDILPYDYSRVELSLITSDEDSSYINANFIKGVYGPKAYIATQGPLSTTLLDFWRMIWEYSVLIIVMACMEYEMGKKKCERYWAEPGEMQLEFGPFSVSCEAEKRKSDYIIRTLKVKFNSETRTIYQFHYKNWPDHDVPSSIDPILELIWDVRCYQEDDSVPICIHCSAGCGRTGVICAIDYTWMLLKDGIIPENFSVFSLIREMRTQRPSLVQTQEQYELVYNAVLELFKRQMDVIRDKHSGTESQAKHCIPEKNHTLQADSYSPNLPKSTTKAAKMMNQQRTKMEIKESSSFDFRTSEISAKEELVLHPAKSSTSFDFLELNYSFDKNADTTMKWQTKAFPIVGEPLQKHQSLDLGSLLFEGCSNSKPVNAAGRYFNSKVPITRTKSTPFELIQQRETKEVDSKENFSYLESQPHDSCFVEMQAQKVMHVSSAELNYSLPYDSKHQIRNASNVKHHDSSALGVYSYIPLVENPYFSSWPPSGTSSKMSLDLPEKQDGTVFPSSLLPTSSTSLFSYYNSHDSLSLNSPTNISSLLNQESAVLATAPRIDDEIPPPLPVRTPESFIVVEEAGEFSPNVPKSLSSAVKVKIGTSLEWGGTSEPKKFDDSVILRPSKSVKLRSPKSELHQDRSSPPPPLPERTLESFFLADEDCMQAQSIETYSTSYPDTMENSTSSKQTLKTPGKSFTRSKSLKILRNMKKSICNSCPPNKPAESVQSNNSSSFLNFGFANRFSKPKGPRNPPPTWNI", "type": "functional"}, "[21]": {"biological_target": "T5, Tyrosine-protein phosphatase non-receptor type 7 (Homo sapiens, UniProt P35236)", "T5 sequence (P35236 whole entry)": "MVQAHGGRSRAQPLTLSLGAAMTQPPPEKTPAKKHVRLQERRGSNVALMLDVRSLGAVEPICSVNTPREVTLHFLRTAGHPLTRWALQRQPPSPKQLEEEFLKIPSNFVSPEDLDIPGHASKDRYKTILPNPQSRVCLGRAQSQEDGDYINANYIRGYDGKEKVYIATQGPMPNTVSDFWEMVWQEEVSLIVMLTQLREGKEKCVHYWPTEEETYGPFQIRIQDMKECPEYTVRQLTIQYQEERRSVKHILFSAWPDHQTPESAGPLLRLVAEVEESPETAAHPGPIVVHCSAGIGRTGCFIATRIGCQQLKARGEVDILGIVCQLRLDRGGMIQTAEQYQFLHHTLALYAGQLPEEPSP", "type": "functional"}, "[22]": {"biological_target": "T4, Tyrosine-protein phosphatase non-receptor type 22", "test": "PTPN22 lymphoid phosphatase activity blockers – biochemical, fluorescence intensity, uHTS (AID 1779)"}, "[23]": {"biological_target": "Envelope glycoprotein gp160 (Human immunodeficiency virus 1, UniProt Q6QLK5)", "test": "cell-free HIV fusion peptide-binding blockers – biochemical, uHTS, fluorescence dequenching, […] (AID 1986)"}, "[24]": {"biological_target": "T3, Voltage-gated N-type calcium channel alpha-1B subunit/Amyloid beta A4 precursor protein-binding family A member 1", "type": "protein assay", "remark": "listed apart in the source"}, "[25]": {"biological_target": "T4, Tyrosine-protein phosphatase non-receptor type 22", "type": "functional", "remark": "listed apart in the source"}, "[26]": {"biological_target": "Voltage-dependent T-type calcium channel subunit alpha-1H (Homo sapiens, UniProt O95180)", "test": "human CACNA1H calcium influx blockade – cell-based, synthetic library set 1, calcium flux (AID 493022)", "type": "functional"}},
  "note": "The source made the active and inactive calls.",
  "data": [
    {"smiles": "CN1CCN(CC(=O)N2CCn3c4c(c5cc(C6CCCCC6)ccc53)CCCC42)CC1", "note": "(stereo unspecified)", "values": [
      {"measurement": "IC50", "setting": "[1]", "value": "> 20 µM (inactive)"},
      {"measurement": "EC50", "setting": "[2]", "value": "14.7 µM (active)"},
      {"measurement": "EC50", "setting": "[3]", "value": "3.56 µM (active)"},
      {"measurement": "EC50", "setting": "[4]", "value": "3.99 µM (active)"},
      {"measurement": "EC50", "setting": "[5]", "value": "4.39 µM (active)"},
      {"measurement": "EC50", "setting": "[6]", "value": "> 150 µM (inconclusive)"},
      {"measurement": "IC50", "setting": "[7]", "value": "18.9 µM (active)"},
      {"measurement": "EC50", "setting": "[8]", "value": "0.84 µM (active)"},
      {"measurement": "IC50", "setting": "[9]", "value": "> 66.6 µM (inactive)"},
      {"measurement": "EC50", "setting": "[10]", "value": "3.48 µM (active)"},
      {"measurement": "CC50", "setting": "[11]", "value": "6.93 µM (active)"},
      {"measurement": "EC50", "setting": "[12]", "value": "> 38 µM (not active)"}
    ]},
    {"smiles": "COc1cccc(/C=N/n2c(S)nnc2-c2cc(C)[nH]n2)c1O", "values": [
      {"measurement": "IC50", "setting": "[13]", "value": "4.07 µM (active)"},
      {"measurement": "AC50", "setting": "[14]", "value": "3.54 µM (active)"},
      {"measurement": "IC50", "setting": "[15]", "value": "16 µM (active)"},
      {"measurement": "IC50", "setting": "[16]", "value": "> 100 µM (inactive)"}
    ]},
    {"smiles": "Cc1cccc(/C=N/NC(=O)c2cc(Br)ccc2O)n1", "values": [
      {"measurement": "EC50", "setting": "[17]", "value": "4.22 µM (active)"}
    ]},
    {"smiles": "CCOc1cc(/C=N/NC(=O)c2ccc(-c3csc(Nc4ccc(C)cc4)n3)cc2)ccc1OCC(=O)O", "values": [
      {"measurement": "IC50", "setting": "[18]", "value": "50 µM (inactive)"},
      {"measurement": "IC50", "setting": "[19]", "value": "11.1 µM (active)"},
      {"measurement": "IC50", "setting": "[20]", "value": "6.63 µM (active)"},
      {"measurement": "IC50", "setting": "[21]", "value": "3.93 µM (active)"},
      {"measurement": "IC50", "setting": "[22]", "value": "8.71 µM (active)"},
      {"measurement": "IC50", "setting": "[23]", "value": "7.29 µM (active)"},
      {"measurement": "IC50", "setting": "[24]", "value": "49.1 µM (active)"},
      {"measurement": "IC50", "setting": "[25]", "value": "4.68 µM (active)"}
    ]},
    {"smiles": "O=C(COc1ccccc1Cl)Nc1nnc(-c2ccc3c(c2)OCO3)o1", "values": [
      {"measurement": "EC50", "setting": "[26]", "value": "3 µM (active)"}
    ]}
  ]
}
